According to ChEMBL document CHEMBL1201862, “PubChem BioAssay data set” (2004):
The source made the active and inactive calls.

How the values were obtained:
[1] = target: T1, High affinity choline transporter 1 (Homo sapiens, UniProt Q9GZV3); test: human choline transporter blockers, potency – cell-based, 10-point CRC, membrane potential dye, dose response (AID 588401); format: functional;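 further: membrane potential dye fluorescence of choline-evoked depolarization via CHT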
T1 sequence (Q9GZV3 whole entry): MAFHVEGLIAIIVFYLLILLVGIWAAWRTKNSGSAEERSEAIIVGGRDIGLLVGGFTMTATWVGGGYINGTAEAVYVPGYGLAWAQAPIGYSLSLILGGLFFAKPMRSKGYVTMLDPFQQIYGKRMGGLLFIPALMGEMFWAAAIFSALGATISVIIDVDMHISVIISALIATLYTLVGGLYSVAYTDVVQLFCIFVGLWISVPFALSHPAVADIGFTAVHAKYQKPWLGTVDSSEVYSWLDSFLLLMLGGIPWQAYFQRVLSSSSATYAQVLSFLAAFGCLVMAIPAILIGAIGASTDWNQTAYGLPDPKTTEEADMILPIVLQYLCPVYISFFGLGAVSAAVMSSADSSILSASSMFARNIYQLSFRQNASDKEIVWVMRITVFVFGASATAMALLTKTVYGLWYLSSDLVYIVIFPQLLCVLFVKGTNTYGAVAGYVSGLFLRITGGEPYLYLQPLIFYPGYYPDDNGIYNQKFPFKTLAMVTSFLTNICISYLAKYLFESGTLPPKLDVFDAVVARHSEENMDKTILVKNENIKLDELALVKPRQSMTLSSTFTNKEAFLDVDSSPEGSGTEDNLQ

[2] = target: T1, High affinity choline transporter 1; test: human choline transporter blockers, potency – cell-based, 5-point CRC, membrane potential dye, dose response (AID 504840); format: functional
[3] = Luminescence Cell-Based Dose Response HTS to Identify Inhibitors of 5'UTR Stem-Loop Driven Prion Protein mRNA Translation in H4 Neuroglioblastoma Cells. [Related pubchem assays: 1827 (Project Summary), 1813 (Primary HTS)]; format: functional
[4] = A Cell Based Secondary Assay to Explore Cytotoxicity in THP-1 Cells of Compounds that Modulate Mycobacterium tuberculosis in Media Containing Glycerol versus Media without Glycerol (2).; format: functional
[5] = HepG2 cell cytotoxicity, dose response, cytotoxicity control, set 3 (AID 504853); format: functional; conditions: Mycobacterium tuberculosis
[6] = luciferase reporter signal suppression in cells – H4 neuroglioma cells, luminescence, dose response (AID 1990); format: functional, cell-based
cells = format: functional
[7] = HepG2 cell cytotoxicity, dose response, cytotoxicity control for non-replicating M. tuberculosis project (AID 489018); format: functional; conditions: Mycobacterium tuberculosis
Streptokinase A = target: T2, Streptokinase A (Streptococcus pyogenes serotype M1, UniProt P10520); test: viability-normalized secreted streptokinase activity reduction – plasminogen activation absorbance, OD405, dose response (AID 1914); format: functional, Streptococcus pyogenes M1 GAS;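 further: secreted streptokinase activity via plasminogen activation per viability signal from cell pellet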
T2 sequence (P10520 whole entry): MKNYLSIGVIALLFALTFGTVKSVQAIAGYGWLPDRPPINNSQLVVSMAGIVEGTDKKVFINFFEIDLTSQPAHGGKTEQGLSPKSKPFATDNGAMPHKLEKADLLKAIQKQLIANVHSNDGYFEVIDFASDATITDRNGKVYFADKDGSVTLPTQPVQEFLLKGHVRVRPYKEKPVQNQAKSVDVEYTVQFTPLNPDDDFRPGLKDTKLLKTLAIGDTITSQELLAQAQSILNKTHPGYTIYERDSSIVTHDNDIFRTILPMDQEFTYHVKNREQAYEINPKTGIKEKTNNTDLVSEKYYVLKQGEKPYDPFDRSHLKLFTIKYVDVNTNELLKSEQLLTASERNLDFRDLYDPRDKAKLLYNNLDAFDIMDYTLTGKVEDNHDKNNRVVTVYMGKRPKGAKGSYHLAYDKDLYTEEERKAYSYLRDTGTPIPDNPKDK

[8] = THP-1 cell cytotoxicity, dose response, cytotoxicity control for non-replicating M. tuberculosis project (AID 489025); format: functional
[9] = microbe, parasite or virus in culture; format: functional; conditions: Mycobacterium tuberculosis
[10] = A Cell Based Secondary Assay to Explore Cytotoxicity in HepG2 Cells of Compounds that Modulate Mycobacterium tuberculosis in Media Containing Glycerol versus Media without Glycerol (2).; format: functional
[11] = NIH3T3 cell viability loss – ATP luminescence, mouse fibroblasts, counter-screen, dose response (AID 2010); format: functional, cell-based;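 further: cells exposed to compound for about 90 hours before reading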
[12] = Vero E6 cell cytotoxicity, dose response, cytotoxicity control for non-replicating M. tuberculosis project, secondary assay (AID 492998); format: functional, VeroE6; conditions: Vero C1008
[13] = Vero cell cytotoxicity, dose response, cytotoxicity control for M. tuberculosis growth inhibitor project, Vero cells, purified and synthesized compounds, set 4 (AID 504854); format: functional; conditions: Mycobacterium tuberculosis
Streptococcus = test: GAS UMAA2166 growth inhibition – luminescence, BacTiterGlo, counter-screen for streptokinase expression inhibitor project, dose response (AID 1915); format: functional, organism-based;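 further: potency for reduction of bacterial viability or growth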
[14] = test system: Streptococcus sp. 'group A'; test: Streptococcus pyogenes SK(-)GAS viability under kanamycin – luminescence, BacTiterGlo, confirmation, counter-screen for streptokinase expression inhibitor project, dose response (AID 1900); format: functional, organism-based
[15] = Vero cell cytotoxicity, dose response, cytotoxicity control for M. tuberculosis growth inhibitor project, Vero cells, purified and synthesized compounds, set 5 (AID 504909); format: functional; conditions: Mycobacterium tuberculosis
[16] = THP-1 cell cytotoxicity, cytotoxicity control, set 4 (AID 504911); format: functional; conditions: Mycobacterium tuberculosis
[17] = alpha-synuclein stem-loop luciferase translation blockers – H4 neuroglioma cells, luminescence, confirmation (AID 1988); format: functional, cell-based
[18] = THP-1 cell cytotoxicity, dose response, cytotoxicity control, set 3 (AID 504852); format: functional; conditions: Mycobacterium tuberculosis
INS1 = test: INS-1E survival protection against cytokine death – cell-based, luminescence, retest, dose response (AID 449756); format: functional; conditions: Rattus norvegicus;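 further: cell death triggered by IL-1 beta plus TNF-alpha plus IFN-gamma mixture; protective hits raise ATP signal compared with cytokine alone wells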
[19] = Trypanosoma cruzi growth suppression in host cells – NIH3T3 host cells, beta-gal luminescence, confirmation (AID 2044); format: functional, cell-based;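 further: intracellular parasites grown in NIH/3T3 mouse fibroblasts as host cells; luminescent beta-galactosidase reporter signal from transgenic T. cruzi replicating inside host cells; inhibitors lower the luminescence signal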
[20] = Vero cell cytotoxicity, cytotoxicity control for M. tuberculosis inhibitor project, purified and synthesized samples, set 3 (AID 504684); format: functional
[21] = HepG2 cell cytotoxicity, cytotoxicity control, set 4 (AID 504910); format: functional; conditions: Mycobacterium tuberculosis

For `Cc1ccc[n+](CC(=O)c2ccc(Br)cc2)c1`, the IC50 [1] was 0.713 µM (active) and the IC50 [2] was 0.0775 µM (inconclusive).
In the case of `c1ccc(N=C2N=C(Nc3ccccn3)c3ccccc32)nc1`, the EC50 [3] is reported as > 120 µM (not active), the CC50 [4] is reported as < 0.2 µM (active) and the CC50 [5] is reported as 21.2 µM (active). The EC50 [6] was 10.5 µM (active), the IC50 (cells) was < 0.1 µM (active) and the CC50 [7] was < 0.039 µM (active). The EC50 (Streptokinase A) was 22.2 µM (active), the CC50 [8] was 0.148 µM (active) and the CC50 [9] was > 40 µM (active). For the same compound, the CC50 [10] was < 0.1 µM (active), the EC50 [11] was 17.7 µM (active) and the CC50 [12] was 0.5 µM (active). The CC50 [13] was > 100 µM (active), the EC50 (Streptococcus) was > 150 µM (not active) and the EC50 [14] was 5.41 µM (active). For the same compound, the CC50 [15] was 60.5 µM (active), the CC50 [16] was > 76.9 µM (active) and the EC50 [17] was 13.4 µM (active). The CC50 [18] was > 71.4 µM (active), the AC50 (INS1) was 0.795 µM (active) and the EC50 [19] was 0.687 µM (active). For the same compound, the CC50 [20] was < 0.2 µM (active) and the CC50 [21] was > 41.3 µM (active).
